In patent US20040147495A1, “Sapogenin derivatives, their synthesis and use, and methods based upon their use” (priority 2001, published 2004):

How the values were obtained:
[1] = tested on: muscarinic receptor; test: Alzheimer's disease model (amyloid β + ibotenic acid): brain muscarinic receptor density by 3H-QNB; format: in vivo, rat; details: Alzheimer's model rats; for brain muscarinic receptor density (in words): 18 mg/kg/day; for Muscarinic receptor Density: 18 mg/kg/day by gastric tube for two months, * p < 0.05
Source text: (§1) In addition the co-injection of amyloid β with a small amount of ibotenic acid into the rat hippocampus synergistically produces neuronal loss with infiltration of glial cells not only adjacent but also far from the injected site (Morimoto et al., 1998: Neuroscience, 84, 479-487).
(§2) Our studies used the method of Morimoto (Morimoto et al., 1998: Neuroscience, 84, 479-487) with some modifications (unilateral instead of bilateral injection). Three months old, Sprague Dawley rats, were randomly divided into different groups. Injection of amyloid β1-40 and ibotenic acid (both from Sigma) was accomplished by means of a stereotaxic instrument (Stoelting Co.) and the coordinates were AP=−0.5 mm […], L=−2.8 mm […], H=−7.0 mm (ventral to dura). The dose for each rat was amyloid β1-40 (4 μg) and ibotenic acid (1 μg) in 1 μl of saline. The injection was completed in 20 min, and the needle was withdrawn 10 min later. Then the skin was sutured.
(§3) Episarsasapogenin cathylate, sarsasapogenin cathylate, episarsasapogenin ethylsuccinate (comparison compound), episarsasapogenin, epismilagenin and diosgenin (all at a dosage of 18 mg/kg/day) were administered to animals as stable suspensions in CMC-Na (0.5%) once daily through a gastric tube. The control and the Alzheimer's model group were given the same volume of CMC-Na (0.5%) once daily. The drugs and vehicles were given for a period of two months, starting 20 days before operation.
The brain samples were homogenised, centrifuged, and the pellet of centrifugation at 27000×g was re-homogenised and used for measurement. The concentration of ^3H-QNB was chosen at the saturation range. After incubation and separation, the bound portion was measured by liquid scintillation counter.

[2] = tested on: Sprague Dawley rats; test: Alzheimer's disease model (amyloid β + ibotenic acid): step-through test; format: in vivo, rat; details: for Step through test Error No: 18 mg/kg/day by gastric tube for two months, wrong responses in 5 min, * p < 0.05; for number of wrong responses in step-through test (in words): 18 mg/kg/day, 5 min
Source text: as §1, §2, §3
The effect of test compounds on memory was assessed using the step-through test. A 60×15×15 cm box, divided into 2 equally sized rooms, one dark room with copper rod base, which was electrically charged (40 V ac) when in use, while the other was a light room but not electrically charged. Between the two rooms there is an opening (hole) for the rat to go through. The experiment is carried out for each rat on two consecutive days. The first day is for training; when the rat is adapted in the box for the first 3 min, then put in the light room, with its back toward the hole, and the copper rods of the dark room are charged for 5 min. The second day is for testing, when the number of crosses in 5 min are recorded. Improvements in memory are signalled by a reduction in the number of crosses.

[3] = tested on: m3 muscarinic receptors; test: CHO-β2/m3 co-transfected cell line: m3 receptor density ([3H]NMS); format: cell-based, Chinese hamster; details: day 5
Experimental: (§4) Chinese hamster ovary (CHO) cells expressing high levels of muscarinic receptor (˜2.2 pmol mg protein^−1) were plated on a 24 well plate, 1 day before the start of the experiment. The culture medium was replaced with medium containing vehicle (DMSO) or the compounds.
(§5) The cells were incubated for 2/3 days, then after a medium change, cells were incubated for a further 2/3 days. The cells were incubated with a saturating concentration of labelled N-methyl-scopolamine, ([^3H]NMS). Cells were washed with ice cold phosphate-buffered saline (PBS) (3×) and bound [^3H]NMS determined by solubilising receptors with RIPA buffer followed by liquid scintillation counting.
(§6) The results shown in FIG. 5 used a CHO cell line co-transfected to express both β2 adrenoceptors and m3 muscarinic receptors. To measure the β2 and m3 receptor density, both [^3H]NMS and [^3H]CGP were used.

[4] = tested on: β2 adrenoceptors; test: CHO-β2/m3 co-transfected cell line: β2 adrenoceptor density ([3H]CGP); format: cell-based, Chinese hamster; details: day 5
Experimental: as §4, §5, §6

[5] = tested on: muscarinic receptor; test: Cell based assay: muscarinic receptor number in transfected CHO cells by [3H]NMS binding; design: species or system Chinese hamster; details: CHO cells expressing muscarinic receptor
Source text: Chinese hamster ovary (CHO) cells transfected with a vector coding for a muscarinic receptor and/or beta adrenoreceptor. The cell line used for the majority of the experiments was a cell line expressing a muscarinic receptor.
The effects of epismilagenin cathylate, sarsasapogenin cathylate, episarsasapogenin cathylate, episarsasapogenin succinate, epismilagenin acetate and sarsasapogenin on the expression of m receptors in CHO cells transfected with vector for the m receptor were investigated. Receptor numbers were assayed using [^3H]NMS binding and subtracting non-specific binding. Compounds were dissolved in dimethyl sulphoxide (DMSO) and DMSO was used as a control.
as §4, §5

[6] = tested on: Aged Sprague-Dawley rats; test: Y-maze learning and memory test in aged rats; format: in vivo, rat; details: 18 mg kg−1 day−1 in food for three months
Experimental: (§7) Aged Sprague-Dawley rats aged were divided randomly into 4 groups, one control and groups treated for three months with either sarsasapogenin, episarsasapogenin cathylate or smilagenin (18 mg kg^−1 day^−1, n=10). A control group (n=14) of untreated young rats was also included in the study. The daily dose of drug was mixed in a minimum amount of food and was administered every morning separately to each rat.
A Y-maze apparatus was used for the learning and memory test. On the floor of each arm of the Y-maze is an array of copper rods to which electric current is applied whenever needed, with adjustable voltage. Each arm is 45 cm long and has a 15 W lamp at the end, which is turned on when needed. After 3 months drug administration, each rat was trained for 7 consecutive days, as follows. For each training session, the rat was put into one arm of the Y-maze, after two minutes rest, an electrical current was applied to the copper rods and the lamp of the clockwise arm was illuminated to indicate the non-stimulation area. If the rat went into that arm, one correct response was recorded, otherwise, one wrong response was recorded. This stimulation-response test was repeated 20 times each day, with a pause of 5 sec between each two consecutive tests. The number of correct responses following the twenty tests on the seventh day was used to express learning ability, (the higher the number the better the learning ability). The rats were then left resting for 30 days and the procedure was repeated once more. The number of correct responses of the 20 tests after the 30 day rest period was used to represent the memory ability

[7] = tested on: muscarinic receptor; test: Muscarinic receptor density in brain of aged rats (dual-site competitive 3H-QNB binding); format: in vivo, rat; details: 18 mg kg−1 day−1 in food for three months
Experimental: as §7
Tissue preparation: Brains were removed quickly after decapitation, frozen in dry ice, and transferred to a freezer. The brains were homogenised and the pellet was finally suspended in buffer.
Dual-site competitive ligand binding assay: ^3H-QNB (quinuclinidyl benzilate) was used as the radio-ligand which was non-selective to M receptor subtypes in vitro. Pirenzipine was used as the selective non-radioactive competing agent. Protein concentration was determined by the micro-Lowry method.

[8] = tested on: rat primary cortical neurons; test: Neuroprotection against glutamate-induced neurodegeneration (LDH release); format: cell-based; details: rat primary cortical cultures pre-treated for 24 h, read 24 h after glutamate
Experimental: Rat cortical neurons were cultured for 10 days; at day 10 the medium was changed to a serum-free defined medium. On day 12, 24 hours before glutamate exposure, cultures were washed and medium was replaced with fresh medium containing positive control (β-oestradiol), test compounds (sarsasapogenin, episarsasapogenin cathylate or smilagenin) or vehicle control (DMSO, 0.25%).
On day 13, cultures were exposed to glutamate.
After the incubation period, the cultures were washed with and placed in fresh medium, supplemented with relevant compounds or vehicle to evaluate their protective effects, 24 h after glutamate exposure.
Neuronal cell survival was evaluated by measuring lactate dehydrogenase (LDH) activity released in the media 24 h after test compound treatment or glutamate+test compound exposure, using the CytoTox 96 non-radioactive kit and quantitated by measuring wavelength absorbance at 450 nm.

SMILES	brain muscarinic receptor density (in words) [1]	Muscarinic receptor Density [1]	Step through test Error No [2]	number of wrong responses in step-through test (in words) [2]	density of m3 receptors [3]	decrease in β2 adrenoceptors [4]	effect on decrease in muscarinic receptor number over the culturing period [5]	learning and memory ability (Y-maze) [6]	muscarinic receptor number in brain [7]	glutamate-induced neurodegeneration (LDH release) [8]
C[C@H]1CC[C@@]2(OC1)O[C@H]1C[C@H]3[C@@H]4CC[C@@H]5C[C@H](O)CC[C@]5(C)[C@H]4CC[C@]3(C)[C@H]1[C@@H]2C [episarsasapogenin]	significant elevation in brain muscarinic receptor density	869 ± 104* fmol/mg/protein	1.50 ± 1.18*	significantly decreased the number of wrong responses						
C[C@@H]1CC[C@@]2(OC1)O[C@H]1C[C@H]3[C@@H]4CC[C@@H]5C[C@H](O)CC[C@]5(C)[C@H]4CC[C@]3(C)[C@H]1[C@@H]2C [epismilagenin]	significant elevation in brain muscarinic receptor density	877 ± 90* fmol/mg/protein	1.73 ± 0.91*	significantly decreased the number of wrong responses						
CC(=O)OC1CCC2(C)C(CCC3C2CCC2(C)C3CC3OC4(CCC(C)CO4)C(C)C32)C1 (stereo not shown) [epismilagenin acetate]					did not significantly alter the density of m3 receptors	significantly prevented				
CCOC(=O)O[C@@H]1CC[C@@]2(C)[C@H](CC[C@@H]3[C@@H]2CC[C@]2(C)[C@@H]4[C@H](C[C@@H]32)O[C@]2(CC[C@H](C)CO2)[C@H]4C)C1 [episarsasapogenin cathylate, 3-Ethoxycarbonyl 5β,20α,22α,25S-spirostan-3α-ol]	significant elevation in brain muscarinic receptor density	877 ± 89* fmol/mg/protein	1.36 ± 0.92*	significantly decreased the number of wrong responses			prevents the decrease in muscarinic receptor number	restored the learning and memory ability	significantly restored the muscarinic receptor number	significant reduction in the glutamate-induced neurodegeneration
C[C@@H]1CC[C@@]2(OC1)O[C@H]1C[C@H]3[C@@H]4CC=C5C[C@@H](O)CC[C@]5(C)[C@H]4CC[C@]3(C)[C@H]1[C@@H]2C [diosgenin, reference compound]	did not significantly change the muscarinic receptor density	770 ± 68 fmol/mg/protein	3.75 ± 1.49	ineffective in decreasing the number of wrong responses						
CC1CCC2(OC1)OC1CC3C4CCC5CC(OC(=O)CCC(=O)O)CCC5(C)C4CCC3(C)C1C2C (stereo not drawn) [episarsasapogenin succinate, mono-3α,5β,20α,22α,25S-spirostanyl succinate]							prevents the decrease in muscarinic receptor number			
CCOC(=O)CCC(=O)OC1CCC2(C)C(CCC3C2CCC2(C)C3CC3OC4(CCC(C)CO4)C(C)C32)C1 (stereo not shown) [episarsasapogenin ethylsuccinate, reference compound]	did not significantly change the muscarinic receptor density	774 ± 79 fmol/mg/protein	3.73 ± 1.35	ineffective in decreasing the number of wrong responses						
CCOC(=O)O[C@H]1CC[C@@]2(C)[C@H](CC[C@@H]3[C@@H]2CC[C@]2(C)[C@@H]4[C@H](C[C@@H]32)O[C@]2(CC[C@H](C)CO2)[C@H]4C)C1 [sarsasapogenin cathylate, 3-Ethoxycarbonyl 5β,20α,22α,25S-spirostan-3-β-ol]	significant elevation in brain muscarinic receptor density	916 ± 158* fmol/mg/protein	1.36 ± 1.03*	significantly decreased the number of wrong responses			prevents the decrease in muscarinic receptor number			
C[C@@H]1CC[C@@]2(OC1)O[C@H]1C[C@H]3[C@@H]4CC[C@@H]5C[C@@H](O)CC[C@]5(C)[C@H]4CC[C@]3(C)[C@H]1[C@@H]2C [smilagenin]								restored the learning and memory ability	significantly restored the muscarinic receptor number	significant reduction in the glutamate-induced neurodegeneration
C[C@H]1CC[C@@]2(OC1)O[C@H]1C[C@H]3[C@@H]4CC[C@@H]5C[C@@H](O)CC[C@]5(C)[C@H]4CC[C@]3(C)[C@H]1[C@@H]2C [sarsasapogenin]							prevents the decrease in muscarinic receptor number	restored the learning and memory ability	significantly restored the muscarinic receptor number	significant reduction in the glutamate-induced neurodegeneration
CCOC(=O)O[C@@H]1CC[C@@]2(C)[C@H](CC[C@@H]3[C@@H]2CC[C@]2(C)[C@@H]4[C@H](C[C@@H]32)O[C@]2(CC[C@@H](C)CO2)[C@H]4C)C1 [epismilagenin cathylate, 3-Ethoxycarbonyl 5β,20α,22α,25R-spirostan-3α-ol]							prevents the decrease in muscarinic receptor number			
